Measured values published in patent publication US8637028B2, “Adjuvant incorporation in immunonanotherapeutics” (President and Fellows of Harvard College, priority 2008, dated 2014).

How the values were obtained:
[1] = Anti-nicotine IgG in immunized mice (ELISA); type: in vivo, mouse; conditions: FIGS. 36 and 37
OT-II CD4 T cells = test: In vivo CD4 T cell activation (CFSE-labeled OT-II cells); parameters: species or system mouse; conditions: with CpG adjuvant, three days after footpad immunization
Description: Subsequently, immunization experiments were performed by injecting one footpad with free OVA or with nanoparticles composed of either PLA or PLGA that encapsulated an equivalent amount of OVA as a model antigen. All antigenic mixtures also contained CpG (a TLR9 agonist) as an adjuvant. The animals were injected, sacrificed three days after immunization, and OT-II T cell activation was assessed by flow cytometry in single-cell suspensions from different tissues.
By contrast, activated T cells divide and in the process split the fluorescent dye evenly between the two daughter cells resulting in an incremental decrease in fluorescence intensity upon each successive division. Thus, the greater the left shift in CFSE, fluorescence the stronger T cells were activated.

Compound	production of nicotine antibodies [1]	local T cell proliferation in distal lymphoid tissues (brachial lymph node, spleen) (OT-II CD4 T cells)
CN1CCCC1c1cccnc1 (centres unmarked) [free nicotine, nicotine]	does not elicit the production of nicotine antibodies	–
free OVA: free chicken ovalbumin model antigen	–	only undivided cells or cells with very low CFSE content
